Results on nine compounds are retold here after patent US4115385A, “Antibacterial 3-(5-tetrazolyl) penam compounds” (Pfizer Inc., priority 1977, dated 1978).

Values after ≈ are worked out from the molar mass of the structure shown. Read-outs that look alike come from different tables or passages of the source.

One assay has as its system Escherichia coli. As to the kind of experiment: In vivo protection of mice against systemic infection by Escherichia coli. To be noted: multiple dosing. As for the experimental part: (§1) The antibacterial penam compounds of the instant invention are also active in vivo. In determining such activity, the test antibiotic is administered to infected mice, using a multiple dosing regimen. The severity of the infection varies from about one to about ten times that needed to kill 100% of the mice under the conditions of the test. At the end of the test, the activity of a compound is assessed by counting the number of survivors among the treated animals. Both the subcutaneous (SC) and the oral (PO) dosage routes are used. Results are given in Table I for two of the compounds of the invention. The ability of the compounds to protect mice against systemic infections caused by a lethal intraperitoneal inoculum of Staphylococcus aureus or of Escherichia coli is presented.

The subject of another assay is Streptococcus pyogenes. As to the kind of experiment: In vitro minimum inhibitory concentration (MIC) vs. Strep. pyogenes. The format is cell-based. To be noted: Streptococcus pyogenes; Table II; two-fold serial dilution, Brain-Heart Infusion broth, overnight; read-out: MIC vs. Strep. pyogenes. The method in brief: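 Broth inoculated with bacteria and test antibiotic, incubated overnight and read visually; MIC is the lowest concentration preventing turbidity. Test preparations also contain some of the corresponding tetrazole tautomer.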

The subject of assay [1] is Staphylococcus aureus. Description: In vivo protection of mice against systemic infection by Staphylococcus aureus. To be noted: multiple dosing. As for the experimental part:
as §1

The subject of assay [2] is Staphylococcus aureus. Description: In vitro minimum inhibitory concentration (MIC) vs. Staph. aureus. Format: cell-based. The conditions noted are these: Staphylococcus aureus. On the procedure:
The antibacterial penam compounds of the instant invention show activity against a wide variety of gram-positive and gram-negative bacteria. […] The broth is inoculated with the bacterial culture, and with the test antibiotic, and then it is incubated overnight. On the next day, the test is read visually. The minimum inhibitory concentration (MIC) is the lowest concentration of antibiotic which prevents turbidity, i.e., which prevents growth of the microorganism. In vitro activities of several of the penam compounds of the invention are presented later in this specification.
In Table II, the minimum inhibitory concentrations (MIC's) of compounds of formula I, wherein R^2 is hydrogen, against a strain of Streptococcus pyogenes, are reported; and in Table III, minimum inhibitory concentrations of compounds of formula I, wherein R^2 is hydrogen, against a strain of Staphylococcus aureus, are presented. Because of the tautomeric nature of such tetrazole derivatives, referred to hereinbefore,each of the preparations tested also contains some of the corresponding compound of formula II, wherein R^3 is hydrogen.

Where [3] appears, read: Table III, two-fold serial dilution, Brain-Heart Infusion broth, overnight, read-out: MIC vs. Staph. aureus.

For orientation: MIC means the smallest concentration in the dilution series that meets the test's criterion for growth inhibition. With `CC1(C)S[C@@H]2[C@H](NC(=O)[C@H](N)c3ccc(O)cc3)C(=O)N2[C@H]1c1nnn[nH]1` [D-2-amino-2-(p-hydroxyphenyl)acetyl, 6-(D-2-Amino-2-[4-hydroxyphenyl]acetamido)-2,2-dimethyl-3-(5-tetrazolyl)penam], the “Percentage Protection E. coli” value is 80% in the assay with Escherichia coli (25 mg./kg. SC), 100% in the assay with Escherichia coli (50 mg./kg. SC) and 100% in the assay with Escherichia coli (200 mg./kg. PO). Moreover, in the assay with Streptococcus pyogenes, the MIC was below 0.1 µg/mL. For the same compound, the “Percentage Protection S. aureus” value in the assay with Staphylococcus aureus [1] (6 mg./kg. SC) came out at 50%; with Staphylococcus aureus [1] (12 mg./kg. SC), 50%; with Staphylococcus aureus [1] (25 mg./kg. SC), 70%; in the assay with Staphylococcus aureus [1] (50 mg./kg. SC), 80%.
`CC1(C)S[C@@H]2[C@H](NC(=O)[C@H](N)c3ccsc3)C(=O)N2[C@H]1c1nnn[nH]1` [D-2-amino-2-(3-thienyl)acetyl, 6-(D-2-Amino-2-[3-thienyl]acetamido)-2,2-dimethyl-3-(5-tetrazolyl)penam]: the MIC in the assay on Staphylococcus aureus [2] (setting [3]) is below 0.1 µg/mL. In addition, the results for the “Percentage Protection E. coli” value in the assay with Escherichia coli (25 mg./kg. SC), with Escherichia coli (50 mg./kg. SC) and in the assay with Escherichia coli (200 mg./kg. PO) were 20%, 20% and 0%, respectively. Moreover, the “Percentage Protection S. aureus” value is given as 50% in the assay with Staphylococcus aureus [1] (6 mg./kg. SC), 50% in the assay with Staphylococcus aureus [1] (12 mg./kg. SC), 60% with Staphylococcus aureus [1] (25 mg./kg. SC) and 40% in the assay on Staphylococcus aureus [1] (50 mg./kg. SC).
`CC1(C)S[C@@H]2[C@H](NC(=O)[C@H](NC(=O)CC3=NCCN3)c3ccccc3)C(=O)N2[C@H]1c1nnn[nH]1`: the MIC with Staphylococcus aureus [2] (setting [3]) stood at 3.12 µg/mL (≈ 6.45 µM).
For `CC(C)C(NC(=N)c1ccncc1)C(=O)N[C@@H]1C(=O)N2[C@@H]1SC(C)(C)[C@@H]2c1nnn[nH]1` (some centres unmarked), the MIC with Staphylococcus aureus [2] (setting [3]) was found to be 50 µg/mL (≈ 113 µM).
In the case of `CC1(C)S[C@@H]2[C@H](NC(=O)[C@H](NC(=O)CNC(=N)c3ccc[nH]3)c3ccccc3)C(=O)N2[C@H]1c1nnn[nH]1`, the MIC in the assay with Staphylococcus aureus [2] (setting [3]) came out at 50 µg/mL (≈ 95.7 µM).
In the case of `CC1(C)S[C@@H]2[C@H](NC(=O)[C@H](NC(=S)NC(=O)c3ccco3)c3ccccc3)C(=O)N2[C@H]1c1nn[nH]n1`, the MIC in the assay with Staphylococcus aureus [2] (setting [3]) stood at 0.78 µg/mL (≈ 1.48 µM).
Regarding `Cc1ccc(S(=O)(=O)NC(=O)N[C@@H](C(=O)N[C@@H]2C(=O)N3[C@@H]2SC(C)(C)[C@@H]3c2nn[nH]n2)c2ccccc2)cc1`, the MIC in the assay with Staphylococcus aureus [2] (setting [3]) was determined as 6.25 µg/mL (≈ 11 µM).
For the compound `CC1(C)S[C@@H]2[C@H](N3C(=O)[C@@H](c4ccccc4)NC3(C)C)C(=O)N2[C@H]1c1nnn[nH]1` [6-(2,2-Dimethyl-5-oxo-4-phenyl-1-imidazolidinyl)-2,2-dimethyl-3-(5-tetrazolyl)penam], the MIC with Staphylococcus aureus [2] (Table IV, values marked *, read-out: MIC against Staph. aureus) was determined as 1.56 µg/mL (≈ 3.77 µM).
Turning to `CC1(C)S[C@@H]2[C@H](NC(=O)[C@H](NS(=O)(=O)c3ccc(Cl)cc3)c3ccccc3)C(=O)N2[C@H]1c1nn[nH]n1`, the MIC in the assay with Staphylococcus aureus [2] (setting [3]) is 1.56 µg/mL (≈ 2.85 µM).
